Data on three compounds can be found in patent US11337988B2, “Use of ouabain antagonists to inhibit viral infection” (priority 2018, dated 2022).

Structures are written as SMILES.

Data set [1] has as its target T1, ATP1A1 (Homo sapiens, UniProt P05023).
T1 construct: ATP1A1 being expressed ubiquitously and being the predominant isoform expressed in A549 cells; endogenous in cells; host or cells: A549 cells (ATCC CCL-185)
Kind of data set: RSV-induced ATP1A1 clustering in A549 cells by confocal immunofluorescence. In kind it is cell-based. The conditions noted are these: A549 treated overnight, RSV MOI=5 PFU/cell, 5 hours. The text has this:
Whether PST2238 treatment had any effect on the clustering of ATP1A1 and RSV proteins was also investigated.
Immunofluorescence microscopy.

For data set [2] the following is noted: adducin- and ouabain-induced forms of hypertension; normal systolic blood pressure of healthy individuals not lowered; cited from earlier work.
For data set [3] the following is noted: including 5 mg twice a day for a week and 0.5 mg per day for three months; cited from earlier work.
Data set [4] has as its system RSV. Kind of data set: Preliminary studies of RSV infection with an inhibitor of clathrin-mediated endocytosis. It is filed as cell-based, human respiratory syncytial virus (RSV). To be noted: non-toxic concentrations.
The test system of data set [5] is EGFR Tyr845. The data set is described as follows: EGFR phosphorylation array (pTyr845) in A549 cells. The conditions noted are these: without RSV infection.
Protocol: A549 cells were treated as indicated (either siRNA knock down for 48 h or pre-treatment with the chemical compounds ouabain [25 n1\4], PST2238 [40 μM] or Src Inhibitor-I (SrcI-I) [6.25 μM] and PP2 [12.5 μM] for 5 h pre-inoculation). Cells were serum starved overnight, before they were inoculated with wt RSV (MOI=5 PFU/cell) and incubated at 37° C. Cells were lysed 5 h p.i. and subjected to a phospho-specific EGFR array (RayBiotech, Inc.). (FIG. 8A) Representative array spots of pTyr845 EGFR and its corresponding pan EGFR for each treatment are shown. […] (FIG. 8D) As control, PST2238 or Ouabain pretreated A549 cells were stimulated with EGF (100 ng/ml) for 45 min and the pTyr845 EGFR signal was quantified. The statistical significance of the differences were determined by one-way analysis of variance with Dunnett multiple-comparison test and the significance p-values are indicated for each comparison. […]
Quantification of EGFR phosphorylation. […] The protein concentration of the lysate was quantified by bicinchoninic acid (BCA) assay (Thermo Fisher Scientific) and lysate containing 150 μg total protein was used for each array. […] The light emission of the array spots was detected by exposure to X-ray films. The films were scanned and the intensity values of each spot were quantified by ImageQuant TL (Array Version 8.1, GE Healthcare). […]
In data set [6] the test system is RSV-GFP. The data set is described as follows: RSV-GFP infection of A549 cells, GFP intensity of total well by ELISA reader. To be noted: discussion statement.
Protocol: Quantification of RSV infection by viral expressed GFP. For the evaluation of RSV infection, RSV-GFP, a recombinantly derived virus that expresses enhanced green fluorescent protein (eGFP) from an additional gene inserted between the P and M genes, was used. SiRNA transfected or pre-treated A549 cells, seeded in a 12-well plate, were inoculated with an MOI of 1.0 PFU/cell. Inoculum was adsorbed for 2 h by incubating on a rocking platform at 37° C., after which the inoculum was washed off and replaced with fresh media. The infected cells were incubated for 17 h at 37° C. and 5% CO2 and the infectivity was evaluated by quantifying GFP either by ELISA reader or flow cytometry. For the ELISA reader quantification, the GFP intensity of the infected monolayer was quantified by an area scan (average GFP intensity of 29 individual measurements per well) on a Synergy 2 ELISA reader (BioTek). […] For the flow cytometry based GFP quantification, the cells were detached with 1 mM EDTA, stained with LIVE/DEAD fixable dead cell staining kit (Life Technologies), and fixed with 4% paraformaldehyde (PFA, Electron Microscopy Science, PA). The GFP intensities of single, live cells were analyzed on a Canto II flow cytometer (BD Biosciences, Franklin Lakes, N.J.).

For `C[C@]12CC[C@H](O)C[C@H]1CC[C@@H]1[C@@H]2CC[C@]2(C)[C@@](O)(c3ccoc3)CC[C@]12O` [PST2238, (3β,5β,14β)-21,23-Epoxy-24-norchola-20,22-diene-3,14,17-triol], the “effect on the clustering of ATP1A1” value in data set [1] was “no apparent effect”. The “effect on blood pressure” value in data set [2] is reported as “lowers the blood pressure”. Besides, the “toxicity in human and animal models” value in data set [3] is on record as “non-toxic”.

With `CN(C)CCCN1c2ccccc2Sc2ccc(Cl)cc21` [chlorpromazine], the “effects on RSV infection” value in data set [4] is recorded as “did not detect effects”.

Take `C[C@@H]1O[C@@H](O[C@H]2C[C@@H](O)[C@]3(CO)[C@@H]4[C@@H](CC[C@]3(O)C2)[C@@]2(O)CCC(C3=CC(=O)OC3)[C@@]2(C)C[C@@H]4O)[C@H](O)[C@H](O)[C@H]1O` (stereo partly drawn) [ouabain, (1β,3β,5β,11α)-3-[(6-Deoxy-α-L-mannopyranosyl)oxy]-1,5,11,14,19-pentahydroxycard-20(22)-enolide]: the “detection of phosphorylation of EGFR Tyr845 following treatment with compound alone” value in data set [5] was “not following treatment with ouabain”. For the same compound, the “concentrations at which inhibition of RSV infection was achieved” value in data set [6] is “sub-nanomolar”.
